Measured values taken from patent publication US3933805A, “S(IV)-benzo-1,2,4-thiadiazine compounds and process for their preparation” (Biersdorf, Akteingesellschaft, priority 1973, dated 1976).
Converted amounts (≈) assume the structure as drawn.

What follows are molecules tested on spontaneous mobility (assay: Decrease of spontaneous mobility). Conditions: Mus musculus, po; mice.
Type: in vivo
Excerpt: (§1) Central depressing effects in mice (ED50 in mg/kg p.o.)
(§2) Example spontaneous Increase in net^(3)
(1) Method described in R.A. Turner, Screening Methods in Pharmacology, […]

SMILES	ED50
CCCN(CCC)CC1=Nc2ccc(Cl)cc2S(=O)(c2ccccc2)=N1 (stereo not drawn) [Example 1, 7-Chloro-3-di-(n-propyl)aminomethyl-1-phenyl-benzo-1,2,4-thiadiazine-1 oxide]	98 mg/kg
CCCN(CCC)CC1=Nc2ccccc2S(=O)(c2ccc(N)cc2)=N1 (stereo not drawn) [Example 2, 3-Di-(n-propyl)-aminomethyl-1-(4'-aminophenyl)-benzo-1,2,4-thiadiazine-1-oxide]	> 250 mg/kg
O=S1(c2ccccc2)=NC(CN2CCCCC2)=Nc2ccc(Cl)cc21 (stereo not drawn) [Example 3]	84 mg/kg
CCN(CC)CC1=Nc2ccc(Cl)cc2S(=O)(c2ccccc2)=N1 (stereo not drawn) [Example 4]	78 mg/kg
O=S1(c2ccccc2)=NC(CN2CCOCC2)=Nc2ccc(Cl)cc21 (stereo not drawn) [Example 5]	> 250 mg/kg
O=S1(c2ccccc2)=NC(CN2CCCC2)=Nc2ccc(Cl)cc21 (stereo not drawn) [Example 6]	70 mg/kg
O=S1(c2ccccc2)=NC(CNCCO)=Nc2ccc(Cl)cc21 (stereo not drawn) [Example 7]	23 mg/kg
CN(C)CC1=Nc2ccc(Cl)cc2S(=O)(c2ccccc2)=N1 (stereo not drawn) [Example 8]	96 mg/kg
COCCNCC1=Nc2ccc(Cl)cc2S(=O)(c2ccccc2)=N1 (stereo not drawn) [Example 9]	> 250 mg/kg
CCNCC1=Nc2ccc(Cl)cc2S(=O)(c2ccccc2)=N1 (stereo not drawn) [Example 13]	240 mg/kg
COCCN(C)CC1=Nc2ccc(Cl)cc2S(=O)(c2ccccc2)=N1 (stereo not drawn) [Example 14]	> 250 mg/kg
CCCN(CCC)CC1=Nc2cc(C)ccc2S(=O)(c2ccccc2)=N1 (stereo not drawn) [Example 15]	76 mg/kg
CCCN(CCC)CC1=Nc2ccccc2S(=O)(c2ccccc2)=N1 (stereo not drawn) [Example 18]	186 mg/kg
O=S1(c2ccccc2)=NC(CNCCO)=Nc2ccccc21 (stereo not drawn) [Example 19]	> 250 mg/kg
CCCN(CCC)CC1=Nc2ccccc2S(=O)(c2ccc(Cl)cc2)=N1 (stereo not drawn) [Example 20]	31 mg/kg
O=S1(c2ccc(Cl)cc2)=NC(CNCCO)=Nc2ccccc21 (stereo not drawn) [Example 21]	46 mg/kg
CCCN(CCC)CC1=Nc2ccc(Cl)cc2S(=O)(c2ccc(Cl)cc2)=N1 (stereo not drawn) [Example 22]	28 mg/kg
CCCN(CCC)CC1=Nc2cccc(Cl)c2S(=O)(c2ccc(Cl)cc2)=N1 (stereo not drawn) [Example 24]	16 mg/kg
CCCN(CCC)CC1=Nc2ccc(C)cc2S(=O)(c2ccc(Cl)cc2)=N1 (stereo not drawn) [Example 25]	31 mg/kg

The molecules below were run on pentobarbital sleep (assay: Prolongation of pentobarbital sleep). Conditions: Mus musculus, po, mice, p.o., read-out: ED50, increase in sleeping (prolongation of pentobarbital sleep).
Type: in vivo
Excerpt: as §1, §2
(2) Prolongation of pentobarbital sleep, R.A. Turner, Screening Methods i
Pharmacology, N.Y. 1965, p. 90.

SMILES	ED50
CCCN(CCC)CC1=Nc2ccc(Cl)cc2S(=O)(c2ccccc2)=N1 (stereo not drawn) [Example 1, 7-Chloro-3-di-(n-propyl)aminomethyl-1-phenyl-benzo-1,2,4-thiadiazine-1 oxide]	22 mg/kg
CCCN(CCC)CC1=Nc2ccccc2S(=O)(c2ccc(N)cc2)=N1 (stereo not drawn) [Example 2, 3-Di-(n-propyl)-aminomethyl-1-(4'-aminophenyl)-benzo-1,2,4-thiadiazine-1-oxide]	8 mg/kg
O=S1(c2ccccc2)=NC(CN2CCCCC2)=Nc2ccc(Cl)cc21 (stereo not drawn) [Example 3]	34 mg/kg
CCN(CC)CC1=Nc2ccc(Cl)cc2S(=O)(c2ccccc2)=N1 (stereo not drawn) [Example 4]	46 mg/kg
O=S1(c2ccccc2)=NC(CN2CCOCC2)=Nc2ccc(Cl)cc21 (stereo not drawn) [Example 5]	46 mg/kg
O=S1(c2ccccc2)=NC(CN2CCCC2)=Nc2ccc(Cl)cc21 (stereo not drawn) [Example 6]	38 mg/kg
O=S1(c2ccccc2)=NC(CNCCO)=Nc2ccc(Cl)cc21 (stereo not drawn) [Example 7]	15 mg/kg
CN(C)CC1=Nc2ccc(Cl)cc2S(=O)(c2ccccc2)=N1 (stereo not drawn) [Example 8]	16 mg/kg
COCCNCC1=Nc2ccc(Cl)cc2S(=O)(c2ccccc2)=N1 (stereo not drawn) [Example 9]	58 mg/kg
CCNCC1=Nc2ccc(Cl)cc2S(=O)(c2ccccc2)=N1 (stereo not drawn) [Example 13]	25 mg/kg
COCCN(C)CC1=Nc2ccc(Cl)cc2S(=O)(c2ccccc2)=N1 (stereo not drawn) [Example 14]	28 mg/kg
CCCN(CCC)CC1=Nc2cc(C)ccc2S(=O)(c2ccccc2)=N1 (stereo not drawn) [Example 15]	8.5 mg/kg
CCCN(CCC)CC1=Nc2ccccc2S(=O)(c2ccccc2)=N1 (stereo not drawn) [Example 18]	3.1 mg/kg
O=S1(c2ccccc2)=NC(CNCCO)=Nc2ccccc21 (stereo not drawn) [Example 19]	2 mg/kg
CCCN(CCC)CC1=Nc2ccccc2S(=O)(c2ccc(Cl)cc2)=N1 (stereo not drawn) [Example 20]	2 mg/kg
O=S1(c2ccc(Cl)cc2)=NC(CNCCO)=Nc2ccccc21 (stereo not drawn) [Example 21]	9 mg/kg
CCCN(CCC)CC1=Nc2ccc(Cl)cc2S(=O)(c2ccc(Cl)cc2)=N1 (stereo not drawn) [Example 22]	16 mg/kg
CCCN(CCC)CC1=Nc2cccc(Cl)c2S(=O)(c2ccc(Cl)cc2)=N1 (stereo not drawn) [Example 24]	20 mg/kg
CCCN(CCC)CC1=Nc2ccc(C)cc2S(=O)(c2ccc(Cl)cc2)=N1 (stereo not drawn) [Example 25]	> 250 mg/kg

Each molecule was assayed on guinea pig small intestine (assay: Spasmolytic effect on guinea pig small intestine in vitro against Acetylcholine). Conditions: Cavia porcellus, Acetylcholine 0.1 γ/ml, read-out: ED50, spasmolytic effect against Acetylcholine.
Type: cell-based
Excerpt: (§3) Spasmolytic effect on guinea pig small intestine (1)
(§4) (1) R. Magnus, Pflugers Arch. ges. Physiol. 102, 123 (1904)

SMILES	IC50
O=S1(c2ccccc2)=NC(CN2CCCCC2)=Nc2ccc(Cl)cc21 (stereo not drawn) [Example 3]	0.9 µg/mL (≈ 2.41 µM)
CCCN(CCC)CC1=Nc2cc(C)ccc2S(=O)(c2ccccc2)=N1 (stereo not drawn) [Example 15]	2.7 µg/mL (≈ 7.31 µM)
CCCN(CCC)CC1=Nc2ccccc2S(=O)(c2ccccc2)=N1 (stereo not drawn) [Example 18]	4 µg/mL (≈ 11.3 µM)
CCCN(CCC)CC1=Nc2ccccc2S(=O)(c2ccc(Cl)cc2)=N1 (stereo not drawn) [Example 20]	2.6 µg/mL (≈ 6.67 µM)
CCCN(CCC)CC1=Nc2ccc(Cl)cc2S(=O)(c2ccc(Cl)cc2)=N1 (stereo not drawn) [Example 22]	2.2 µg/mL (≈ 5.18 µM)
CCCN(CCC)CC1=Nc2ccc(Cl)cc2S(=O)(c2cccc(C)c2)=N1 (stereo not drawn) [Example 23]	1.1 µg/mL (≈ 2.72 µM)
CCCN(CCC)CC1=Nc2cccc(Cl)c2S(=O)(c2ccc(Cl)cc2)=N1 (stereo not drawn) [Example 24]	2.2 µg/mL (≈ 5.18 µM)
CCCN(CCC)CC1=Nc2ccc(C)cc2S(=O)(c2ccc(Cl)cc2)=N1 (stereo not drawn) [Example 25]	0.69 µg/mL (≈ 1.71 µM)

These molecules were tested on guinea pig small intestine (assay: Spasmolytic effect on guinea pig small intestine in vitro against Histamine). Conditions: Cavia porcellus, Histamine 0.1 γ/ml, read-out: ED50, spasmolytic effect against Histamine.
Type: cell-based
Excerpt: as §3, §4

SMILES	IC50
CCCN(CCC)CC1=Nc2cc(C)ccc2S(=O)(c2ccccc2)=N1 (stereo not drawn) [Example 15]	0.96 µg/mL (≈ 2.6 µM)
CCCN(CCC)CC1=Nc2ccc(Cl)cc2S(=O)(c2cccc(C)c2)=N1 (stereo not drawn) [Example 23]	0.08 µg/mL (≈ 0.198 µM)
CCCN(CCC)CC1=Nc2cccc(Cl)c2S(=O)(c2ccc(Cl)cc2)=N1 (stereo not drawn) [Example 24]	0.04 µg/mL (≈ 0.0943 µM)

What follows are molecules tested on Minimum Electroshock Threshold (assay: Minimum Electroshock Threshold (increase in net)). Conditions: Mus musculus, po; mice.
Type: in vivo
Excerpt: as §1, §2
(3) Minimum Electroshock Threshold, test arrangement according to Brown,
Schiffmann, Swinyard and Goodman; J.Pharmacol. Exptl. Ther. 107, 273

SMILES	ED50
CCCN(CCC)CC1=Nc2ccc(Cl)cc2S(=O)(c2ccccc2)=N1 (stereo not drawn) [Example 1, 7-Chloro-3-di-(n-propyl)aminomethyl-1-phenyl-benzo-1,2,4-thiadiazine-1 oxide]	38 mg/kg
O=S1(c2ccccc2)=NC(CN2CCCCC2)=Nc2ccc(Cl)cc21 (stereo not drawn) [Example 3]	34 mg/kg
CCN(CC)CC1=Nc2ccc(Cl)cc2S(=O)(c2ccccc2)=N1 (stereo not drawn) [Example 4]	28 mg/kg
O=S1(c2ccccc2)=NC(CN2CCOCC2)=Nc2ccc(Cl)cc21 (stereo not drawn) [Example 5]	92 mg/kg
O=S1(c2ccccc2)=NC(CN2CCCC2)=Nc2ccc(Cl)cc21 (stereo not drawn) [Example 6]	68 mg/kg
O=S1(c2ccccc2)=NC(CNCCO)=Nc2ccc(Cl)cc21 (stereo not drawn) [Example 7]	126 mg/kg
CN(C)CC1=Nc2ccc(Cl)cc2S(=O)(c2ccccc2)=N1 (stereo not drawn) [Example 8]	46 mg/kg
COCCNCC1=Nc2ccc(Cl)cc2S(=O)(c2ccccc2)=N1 (stereo not drawn) [Example 9]	32 mg/kg
CCNCC1=Nc2ccc(Cl)cc2S(=O)(c2ccccc2)=N1 (stereo not drawn) [Example 13]	42 mg/kg
COCCN(C)CC1=Nc2ccc(Cl)cc2S(=O)(c2ccccc2)=N1 (stereo not drawn) [Example 14]	46 mg/kg
CCCN(CCC)CC1=Nc2cc(C)ccc2S(=O)(c2ccccc2)=N1 (stereo not drawn) [Example 15]	> 500 mg/kg
CCCN(CCC)CC1=Nc2ccccc2S(=O)(c2ccccc2)=N1 (stereo not drawn) [Example 18]	134 mg/kg
O=S1(c2ccccc2)=NC(CNCCO)=Nc2ccccc21 (stereo not drawn) [Example 19]	> 500 mg/kg
CCCN(CCC)CC1=Nc2ccccc2S(=O)(c2ccc(Cl)cc2)=N1 (stereo not drawn) [Example 20]	> 250 mg/kg
CCCN(CCC)CC1=Nc2cccc(Cl)c2S(=O)(c2ccc(Cl)cc2)=N1 (stereo not drawn) [Example 24]	115 mg/kg
CCCN(CCC)CC1=Nc2ccc(C)cc2S(=O)(c2ccc(Cl)cc2)=N1 (stereo not drawn) [Example 25]	21 mg/kg

What follows are molecules tested on guinea pig small intestine (assay: Spasmolytic effect on guinea pig small intestine in vitro against Barium chloride). Conditions: Cavia porcellus, Barium chloride 200 γ/ml, read-out: ED50, spasmolytic effect against Barium chloride.
Type: cell-based
Excerpt: as §3, §4

SMILES	IC50
O=S1(c2ccccc2)=NC(CN2CCCCC2)=Nc2ccc(Cl)cc21 (stereo not drawn) [Example 3]	1.7 µg/mL (≈ 4.55 µM)
CCCN(CCC)CC1=Nc2cc(C)ccc2S(=O)(c2ccccc2)=N1 (stereo not drawn) [Example 15]	2.2 µg/mL (≈ 5.95 µM)
CCCN(CCC)CC1=Nc2ccccc2S(=O)(c2ccccc2)=N1 (stereo not drawn) [Example 18]	1.2 µg/mL (≈ 3.38 µM)
CCCN(CCC)CC1=Nc2ccc(Cl)cc2S(=O)(c2ccc(Cl)cc2)=N1 (stereo not drawn) [Example 22]	0.72 µg/mL (≈ 1.7 µM)
CCCN(CCC)CC1=Nc2ccc(Cl)cc2S(=O)(c2cccc(C)c2)=N1 (stereo not drawn) [Example 23]	0.9 µg/mL (≈ 2.23 µM)
CCCN(CCC)CC1=Nc2cccc(Cl)c2S(=O)(c2ccc(Cl)cc2)=N1 (stereo not drawn) [Example 24]	0.72 µg/mL (≈ 1.7 µM)
CCCN(CCC)CC1=Nc2ccc(C)cc2S(=O)(c2ccc(Cl)cc2)=N1 (stereo not drawn) [Example 25]	0.69 µg/mL (≈ 1.71 µM)
